Data published in the NIST ThermoML archive (doi:10.1021/acs.jced.5b00447).
± gives the expanded uncertainty stated by the source.

Assays:
[1] = xn = mol fraction of the nth substance listed; conditions: for surface tension liquid-gas: wilhelmi plate; for viscosity / speed of sound / mass density: 100 kPa, Liquid; for viscosity: Capillary tube (Ostwald / Ubbelohde) method; for speed of sound: Frequency=3 MHz, Sing-around technique in a fixed-path interferometer; for mass density: Vibrating tube method
[2] = for surface tension liquid-gas: wilhelmi plate; for viscosity / speed of sound / mass density: 100 kPa, Liquid; for viscosity: Capillary tube (Ostwald / Ubbelohde) method; for speed of sound: Frequency=3 MHz, Sing-around technique in a fixed-path interferometer; for mass density: Vibrating tube method

Row | SMILES | surface tension liquid-gas ([2]; 298.15 K) [mN/m] | viscosity ([2]; 298.15 K) [mPa·s] | speed of sound ([2]; 298.15 K) [m/s] | mass density ([2]; 298.15 K) [kg/m3] | surface tension liquid-gas ([2]; 293.15 K) [mN/m] | viscosity ([2]; 293.15 K) [mPa·s] | mass density ([2]; 293.15 K) [kg/m3] | surface tension liquid-gas ([2]; 303.15 K) [mN/m] | viscosity ([2]; 303.15 K) [mPa·s] | mass density ([2]; 303.15 K) [kg/m3] | surface tension liquid-gas ([2]; 313.15 K) [mN/m] | viscosity ([2]; 313.15 K) [mPa·s] | speed of sound ([2]; 313.15 K) [m/s] | mass density ([2]; 313.15 K) [kg/m3] | surface tension liquid-gas ([2]; 323.15 K) [mN/m] | viscosity ([2]; 323.15 K) [mPa·s] | mass density ([2]; 323.15 K) [kg/m3] | further results
1 | CN(C)CCN [2-dimethylamino-1-ethylamine] + NCCO | – | – | – | – | – | – | – | – | – | – | – | – | – | – | – | – | – | surface tension liquid-gas ([1]; 293.15 K, x1 = 0.5): 32.4 ± 0.4 mN/m; viscosity ([1]; 293.15 K, x1 = 0.5): 10.74 ± 0.095 mPa·s; speed of sound ([1]; 293.15 K, x1 = 0.5): 1498.1 ± 2.2 m/s; mass density ([1]; 293.15 K, x1 = 0.5): 941 ± 2 kg/m3; surface tension liquid-gas ([1]; 303.15 K, x1 = 0.5): 31.6 ± 0.4 mN/m; viscosity ([1]; 303.15 K, x1 = 0.5): 7.169 ± 0.065 mPa·s; speed of sound ([1]; 303.15 K, x1 = 0.5): 1463.7 ± 2.2 m/s; mass density ([1]; 303.15 K, x1 = 0.5): 932 ± 2 kg/m3; surface tension liquid-gas ([1]; 313.15 K, x1 = 0.5): 30.9 ± 0.4 mN/m; viscosity ([1]; 313.15 K, x1 = 0.5): 5.066 ± 0.047 mPa·s; speed of sound ([1]; 313.15 K, x1 = 0.5): 1428.9 ± 2.2 m/s; mass density ([1]; 313.15 K, x1 = 0.5): 924 ± 2 kg/m3; surface tension liquid-gas ([1]; 323.15 K, x1 = 0.5): 30.3 ± 0.4 mN/m; viscosity ([1]; 323.15 K, x1 = 0.5): 3.517 ± 0.033 mPa·s; speed of sound ([1]; 323.15 K, x1 = 0.5): 1394.1 ± 2.2 m/s; mass density ([1]; 323.15 K, x1 = 0.5): 916 ± 2 kg/m3
2 | NCCO [2-aminoethan-1-ol] | 49.1 ± 0.4 | 18.74 ± 4.7 | 1719.2 ± 1.9 | 1012 ± 2 | – | – | – | – | – | – | – | – | – | – | – | – | – | –
3 | CN(C)CCN [2-dimethylamino-1-ethylamine] | 26.1 ± 0.4 | 0.895 ± 0.068 | 1300.8 ± 2.5 | 814.3 ± 2.1 | 26.4 ± 0.4 | 0.988 ± 0.075 | 819 ± 2 | 25.8 ± 0.4 | 0.819 ± 0.054 | 810 ± 2 | 25.2 ± 0.4 | 0.693 ± 0.045 | 1239 ± 2.5 | 801 ± 2 | 24.5 ± 0.4 | 0.596 ± 0.039 | 791 ± 2 | speed of sound ([2]; 293.15 K): 1319.6 ± 2.5 m/s; speed of sound ([2]; 303.15 K): 1279.3 ± 2.5 m/s; speed of sound ([2]; 323.15 K): 1199.3 ± 2.5 m/s
4 | CN(C)CCO [2-(N,N-dimethylamino)ethanol] | 31.3 ± 0.4 | 3.69 ± 0.42 | 1335.9 ± 2.5 | 882.8 ± 2.1 | – | – | – | – | – | – | – | – | – | – | – | – | – | –
5 | O [water] | 72.1 ± 0.3 | 0.891 ± 0.079 | – | – | 72.6 ± 0.3 | 0.993 ± 0.082 | 998 ± 2 | 71.1 ± 0.3 | 0.797 ± 0.063 | 996 ± 2 | 69.2 ± 0.3 | 0.654 ± 0.05 | 1529.1 ± 1.6 | 992 ± 2 | 67.7 ± 0.3 | 0.547 ± 0.043 | 988 ± 2 | –
6 | O [water] + CN(C)CCN | – | – | – | – | – | – | – | – | – | – | – | – | – | – | – | – | – | surface tension liquid-gas ([1]; 293.15 K, x2 = 0): 72.6 ± 0.6 mN/m; viscosity ([1]; 293.15 K, x2 = 0): 0.993 ± 0.006 mPa·s; mass density ([1]; 293.15 K, x2 = 0): 998 ± 2 kg/m3; surface tension liquid-gas ([1]; 303.15 K, x2 = 0): 71.1 ± 0.6 mN/m; viscosity ([1]; 303.15 K, x2 = 0): 0.797 ± 0.005 mPa·s; mass density ([1]; 303.15 K, x2 = 0): 996 ± 2 kg/m3; surface tension liquid-gas ([1]; 313.15 K, x2 = 0): 69.2 ± 0.6 mN/m; viscosity ([1]; 313.15 K, x2 = 0): 0.654 ± 0.005 mPa·s; speed of sound ([1]; 313.15 K, x2 = 0): 1529.1 ± 1.6 m/s; mass density ([1]; 313.15 K, x2 = 0): 992 ± 2 kg/m3; surface tension liquid-gas ([1]; 323.15 K, x2 = 0): 67.7 ± 0.6 mN/m; viscosity ([1]; 323.15 K, x2 = 0): 0.547 ± 0.004 mPa·s; mass density ([1]; 323.15 K, x2 = 0): 988 ± 2 kg/m3
